Among the test systems are SK-OV-3; HCT-15; LOX IMVI; SK-MEL-5; M14; A549; EKVX; NCI-H460; Malme-3M; HCT-116; SK-MEL-2; NCI-H522; OVCAR-3; SR; SNB-19; RXF 393; HOP-92.
Holding throughout (experiment): NCI anticancer screen, dose series, 48 h

This is an account of results in ChEMBL document CHEMBL1201862, “PubChem BioAssay data set” (2004).

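Dose response: 5 concentrations. Exposure: 48 h. Format: 96-well plates. Endpoint: linear interpolation; highest concentration if not reached. Here, GI50 denotes the concentration required for 50% inhibition of growth.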 Active and inactive are the calls of the source. Rule as the data show it: active = GI50 up to about 1.1 µM and inactive = higher.

On to `O=C(N/N=C/c1ccccc1O)c1cccc([N+](=O)[O-])c1`, for which the GI50 is 15 µM (inactive) with SK-OV-3; 6.59 µM with HCT-15; 18.4 µM (inactive) in the experiment with LOX IMVI; 9.98 µM (inactive) in the experiment with SK-MEL-5; 14.7 µM (inactive) in the experiment on M14; 31 µM (inactive) in the experiment with A549. In addition, the GI50 in the experiment on EKVX was 21.1 µM (inactive); in the experiment on NCI-H460 it was 4.68 µM (inactive); with Malme-3M, 30.8 µM (inactive); in the experiment with HCT-116, 22.5 µM (inactive); with SK-MEL-2, 21.8 µM (inactive); in the experiment on NCI-H522 it was 32.7 µM (inactive). Also, the GI50 with OVCAR-3 was 1.71 µM (inactive); with SR it was 3.78 µM (inactive); in the experiment with SNB-19 it was > 58.9 µM (inactive); with RXF 393, 8.95 µM (inactive).

As to `COC(=O)C(=O)C(C(=O)C(=O)Nc1ccccc1C(N)=O)c1nc2ccc([N+](=O)[O-])cc2nc1O` (configuration not stated), the GI50 with SK-OV-3 was > 100 µM (inactive); in the experiment with HCT-15 it was greater than 100 µM; with LOX IMVI it was > 100 µM (inactive); in the experiment with SK-MEL-5, > 100 µM (inactive); with M14, > 100 µM (inactive); in the experiment on A549, > 100 µM (inactive). The GI50 with HOP-92, in the experiment on EKVX, with NCI-H460, in the experiment on Malme-3M, in the experiment on HCT-116 and in the experiment with SK-MEL-2 was > 100 µM (inactive) in each case. Also, the GI50 with NCI-H522, in the experiment on SR, in the experiment on SNB-19 and with RXF 393 was > 100 µM (inactive) in each case.

On to `C1=CC2CCC1CN2CCC1CNc2ccccc21` (configuration not stated), for which the GI50 with SK-OV-3, with LOX IMVI, with M14, in the experiment with A549, in the experiment with HOP-92 and with EKVX was > 100 µM (inactive) each time. In addition, the GI50 in the experiment with Malme-3M, in the experiment with HCT-116, in the experiment with SK-MEL-2, in the experiment with NCI-H522, in the experiment with OVCAR-3 and in the experiment on SR was > 100 µM (inactive) in each case. The GI50 in the experiment with SNB-19 was > 100 µM (inactive); in the experiment with RXF 393 it was 75.3 µM (inactive).

Consider `CCCCCCCCCCCCCCCCCc1nnc(N)o1`, for which the GI50 in the experiment on SK-OV-3 is > 100 µM (inactive); with HCT-15, greater than 100 µM; with LOX IMVI, > 100 µM (inactive); in the experiment with M14 it was > 100 µM (inactive); with A549 it was > 100 µM (inactive); in the experiment with HOP-92 it was > 100 µM (inactive). Besides, the GI50 in the experiment on NCI-H460, in the experiment on Malme-3M, in the experiment on HCT-116, in the experiment with SK-MEL-2, in the experiment on NCI-H522 and with OVCAR-3 was > 100 µM (inactive) each time. For the same compound, the GI50 in the experiment with SR and in the experiment with SNB-19 was > 100 µM (inactive) throughout.

Regarding `COc1cc(C2[C@H]3C(=O)N(c4ccc(Cc5ccc(N6C(=O)[C@@H]7ON(c8ccccc8)C(c8cc(OC)c(OC)c(OC)c8)[C@@H]7C6=O)cc5)cc4)C(=O)[C@H]3ON2c2ccccc2)cc(OC)c1OC` (some centres not stated), the GI50 is > 100 µM (inactive) with SK-OV-3; greater than 100 µM in the experiment with HCT-15; > 100 µM (inactive) in the experiment with LOX IMVI; 38.5 µM (inactive) with SK-MEL-5; 17 µM (inactive) in the experiment on M14; > 100 µM (inactive) in the experiment with A549. In addition, the GI50 in the experiment with EKVX is > 100 µM (inactive); in the experiment on NCI-H460, > 100 µM (inactive); in the experiment on Malme-3M, 46.3 µM (inactive); in the experiment on HCT-116, > 100 µM (inactive); in the experiment on SK-MEL-2, > 100 µM (inactive); with NCI-H522 it was > 100 µM (inactive). Further, the GI50 in the experiment on OVCAR-3, in the experiment on SR, in the experiment on SNB-19 and with RXF 393 was > 100 µM (inactive) each time.

In the case of `CC1(C)CC(=O)C(CC2C(=O)CCCC2=O)C(=O)C1`, the GI50 is > 100 µM (inactive) in the experiment with SK-OV-3; greater than 100 µM in the experiment on HCT-15; > 100 µM (inactive) with LOX IMVI; > 100 µM (inactive) in the experiment with SK-MEL-5; > 100 µM (inactive) in the experiment on M14; > 100 µM (inactive) in the experiment on A549. For the same compound, the GI50 in the experiment on EKVX, with NCI-H460, in the experiment on Malme-3M, in the experiment on HCT-116, in the experiment with SK-MEL-2 and with NCI-H522 was > 100 µM (inactive) throughout. Further, the GI50 in the experiment with OVCAR-3, in the experiment on SR, in the experiment on SNB-19 and in the experiment with RXF 393 was > 100 µM (inactive) in each case.

For the compound `O=c1nc(N2CCCC2)nc(N2CCCC2)s1`, the GI50 in the experiment on SK-OV-3 was > 100 µM (inactive); in the experiment on HCT-15 it was greater than 100 µM; in the experiment with LOX IMVI, > 100 µM (inactive); in the experiment on SK-MEL-5, > 100 µM (inactive); in the experiment on M14 it was > 100 µM (inactive); in the experiment on A549, > 100 µM (inactive). For the same compound, the GI50 in the experiment on HOP-92, in the experiment on EKVX, with NCI-H460, with Malme-3M, in the experiment on HCT-116 and in the experiment on SK-MEL-2 was > 100 µM (inactive) throughout. For the same compound, the GI50 in the experiment on NCI-H522, in the experiment on SR, with SNB-19 and with RXF 393 was > 100 µM (inactive) each time.

As for `Cc1ccc(C)c(NC(=O)CC2SC(Nc3ccccc3Cl)=NC2=O)c1` (configuration not stated), the GI50 is > 100 µM (inactive) in the experiment with SK-OV-3; greater than 100 µM with HCT-15; 36.1 µM (inactive) in the experiment on SK-MEL-5; > 100 µM (inactive) in the experiment on M14; 65.3 µM (inactive) in the experiment on A549; 27.7 µM (inactive) in the experiment with HOP-92. In addition, the GI50 was > 100 µM (inactive) in the experiment on EKVX; > 100 µM (inactive) in the experiment on NCI-H460; > 100 µM (inactive) in the experiment with Malme-3M; > 100 µM (inactive) in the experiment on HCT-116; > 100 µM (inactive) in the experiment on SK-MEL-2; 27 µM (inactive) in the experiment on NCI-H522. Also, the GI50 in the experiment with OVCAR-3 was > 100 µM (inactive); in the experiment on SR it was 8.61 µM (inactive); in the experiment on SNB-19 it was > 100 µM (inactive); with RXF 393 it was 90.8 µM (inactive).

Regarding `COc1ccc(-c2cc(=O)c3c(O)c(OC)c(O)c(OC)c3o2)cc1OC`, the GI50 is 80 µM (inactive) in the experiment with SK-OV-3; 63.7 µM in the experiment on HCT-15; > 100 µM (inactive) with SK-MEL-5; > 100 µM (inactive) in the experiment with M14; 72.1 µM (inactive) with A549; 25.1 µM (inactive) with HOP-92. For the same compound, the GI50 in the experiment with EKVX was > 100 µM (inactive); with Malme-3M it was > 100 µM (inactive); in the experiment with HCT-116 it was 57 µM (inactive); with NCI-H522, 12 µM (inactive); with SR, 31.2 µM (inactive); in the experiment with SNB-19 it was > 100 µM (inactive). Further, the GI50 in the experiment with RXF 393 is 14.1 µM (inactive).
